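Here, GI50 denotes the concentration required for 50% inhibition of growth. Definition used: TGI = concentration required for complete inhibition of growth.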
Experiments:
Test in all cases: growth of human tumour cells (NCI), 384-well format
[1] = tested on: IGROV1 ovarian
[2] = tested on: HCC-2998 colon
[3] = tested on: NCI-H322M lung
[4] = tested on: T-47D breast
[5] = tested on: NCI-H522 lung
[6] = tested on: HOP-62 NSCLC
[7] = tested on: HCT-116 colon
[8] = tested on: MDA-MB-468 breast
[9] = tested on: M14 melanoma
[10] = tested on: NCI-H460 NSCLC
[11] = tested on: OVCAR-3 ovarian
[12] = tested on: SK-OV-3 ovarian
[13] = tested on: HT29 colon
[14] = tested on: MOLT-4 leukemia
[15] = tested on: RXF 393 renal
[16] = tested on: CAKI-1 renal
[17] = tested on: OVCAR-4 ovarian
[18] = tested on: SN12C renal
[19] = tested on: SNB-75 CNS
[20] = tested on: SF-295 CNS
[21] = tested on: U251 glioblastoma
[22] = tested on: NCI-H23 lung
[23] = tested on: SK-MEL-5 melanoma
[24] = tested on: SR leukemia
[25] = tested on: MALME-3M melanoma
[26] = tested on: SK-MEL-28 melanoma

## CNCCn1c(=O)c2cc(OC)c(OC)cc2c2cnc3cc4c(cc3c21)OCO4
[1]
  GI50: 15.8 nM
  TGI: 66.7 nM
[2]
  GI50: 12.4 nM
  TGI: 32.4 nM
[3]
  GI50: 15.6 nM
  TGI: 41.1 nM
[4]
  GI50: < 10 nM
  TGI: 242 nM
[5]
  GI50: < 10 nM
  TGI: 23.3 nM
[6]
  GI50: < 10 nM
  TGI: < 10 nM
[7]
  GI50: < 10 nM
  TGI: 19.2 nM
[8]
  GI50: < 10 nM
  TGI: < 10 nM
[9]
  GI50: < 10 nM
  TGI: < 10 nM
[10]
  GI50: < 10 nM
  TGI: < 10 nM
[11]
  GI50: < 10 nM
  TGI: 14.1 nM
[12]
  GI50: < 10 nM
  TGI: 17.7 nM
[13]
  GI50: < 10 nM
  TGI: 20.5 nM
[14]
  GI50: < 10 nM
  TGI: < 10 nM
[15]
  GI50: 13.7 nM
  TGI: 43.1 nM
[16]
  GI50: < 10 nM
  TGI: 1490 nM
[17]
  GI50: 21.7 nM
  TGI: 42 nM
[18]
  GI50: < 10 nM
  TGI: < 10 nM
[19]
  GI50: < 10 nM
  TGI: 23.3 nM
[20]
  GI50: < 10 nM
  TGI: < 10 nM
[21]
  GI50: < 10 nM
  TGI: 12.3 nM
[22]
  GI50: < 10 nM
  TGI: 16.2 nM
[23]
  GI50: < 10 nM
  TGI: 14.8 nM
[24]
  GI50: < 10 nM
  TGI: < 10 nM
[25]
  GI50: 25.5 nM
  TGI: 1810 nM
[26]
  GI50: 28.8 nM
  TGI: 1830 nM
